Laboratory results published in patent US20210213006A1, “METHODS OF TREATING NEURODEGENERATIVE DISEASES” (Seal Rock Therapeutics, Inc., priority 2018, published 2021).

Experiments:
[1] = target: T1, recombinant human full-length DYRK1A protein (Homo sapiens, UniProt Q13627); assay: DYRK1A Kinase Assay (microfluidics detection); format: biochemical; conditions: enzyme 0.01 nM, ATP 20 μM, DYRKtide peptide 1 μM, 3 h
T1 construct: recombinant human full-length DYRK1A protein; GST; host or cells: insect cells
Method: The DYRK1A kinase assay was performed using recombinant human full-length DYRK1A protein (GST-tagged, expressed in insect cells), in a 12-concentration IC50 format with singlicate wells (12 pt IC50), using microfluidics detection technology. Kinase reactions were assembled in 384 well plates (Greiner) in a total volume of 20 uL as follows: kinase protein was pre-diluted in assay buffer comprising: 100 mM HEPES, pH 7.5, 0.1% BSA, 0.01% Triton X-100, 1mM DTT, 5mM MgCl2 and dispensed into 384 well plate (10 μL per well). All compounds and reference standards were serially pre-diluted in DMSO and added to the protein samples by acoustic dispensing (Labcyte Echo). DMSO concentration was equalized to 1% in all samples. Control samples (0%-inhibition in the absence of inhibitor, DMSO only) and 100%-inhibition (in the absence of enzyme) are assembled in replicates of four and used to calculate the %-inhibition in the presence of compounds. Reactions were initiated by addition of […] of FAM-labeled DYRKtide peptide substrate and ATP prepared in the same assay buffer. Final concentrations of enzyme, ATP and substrate peptide were 0.01 nM, 20 μM and 1 μM, respectively. The kinase reactions are allowed to proceed for 3 h at room temperature. Following incubation, the reactions were quenched by addition of 50 μL of termination buffer (100 mM HEPES, pH7.5, 0.01% Triton X-100, 50 mM EDTA). Terminated plates are analyzed on a microfluidic electrophoresis instrument (Caliper LabChip® 3000, Caliper Life Sciences/Perkin Elmer), enabling electrophoretic separation and detection of product and substrate. A change in the relative intensity of the peptide substrate and phosphorylated product was the parameter measured. Activity in each test sample was determined as the product to sum ratio (PSR): P/(S+P), where P is the peak height of the product, and S is the peak height of the substrate. Percent inhibition (Pinh) was determined using the following equation: Pinh=(PSR0% inh—PSR compound)/(PSR0% inh—PSR100% inh)*100, in which: PSR compound is the product/sum ratio in the presence of compound, PSR0% inh is the product/sum ratio in the absence of compound and the PSR100% inh is the product/sum ratio in the absence of the enzyme. The compound IC50 (50%-inhibition) was determined by the %-inh data (Pinh versus compound concentration) fitted by a 4-parameter sigmoid dose-response model using XLfit software (IDBS).

ASK1 = target: T2, ASK1 (Homo sapiens, UniProt Q99683); assay: ASK1 Kinase Assay (Promega ASK1 Kinase Enzyme System, ADP-Glo); format: biochemical; conditions: enzyme 50 nM, Myelin basic protein 1 μg/ml, ATP 10 μM
T2 construct: purchased Promega V3881
Method: ASK1 Kinase Assay. The ASK1 enzymatic assay was run following Promega ASK1 Kinase Enzyme System (Cat #V3881). The kit provides the protocol, enzymes and all reagents necessary to run an assay.
Firstly, the compounds, enzyme, substrate and ATP were diluted in provided assay buffer. The final concentration of the enzyme was 50 nM, substrate (Myelin basic protein) 1μg/ml and ATP 10 μM. The compound and the enzyme were pre-incubated in a 384 well white solid bottom plate (Greiner, Cat #784075) for 10 minutes. After incubation, the substrate and ATP were added and incubated for further 60 minutes. After 60 minutes, ADP-gloTM was added and plate was incubated for another 40 minutes. After 40 minutes, Kinase Detection Reagent was added and the plate was incubated for 45 minutes. After 45 minutes, plate was read on Perkin Elmer EnVision using luminescence read (0.5 seconds/well).

T2 sequence (Q99683 649-946 limits assumed): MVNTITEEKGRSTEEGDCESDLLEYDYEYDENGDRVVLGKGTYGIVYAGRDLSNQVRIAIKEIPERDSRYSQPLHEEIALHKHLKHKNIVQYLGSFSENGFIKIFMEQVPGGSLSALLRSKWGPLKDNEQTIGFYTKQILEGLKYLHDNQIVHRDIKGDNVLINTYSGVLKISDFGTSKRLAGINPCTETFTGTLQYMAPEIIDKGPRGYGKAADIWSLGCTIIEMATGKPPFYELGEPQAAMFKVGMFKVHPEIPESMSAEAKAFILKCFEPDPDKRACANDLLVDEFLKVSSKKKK

Molecule | IC50 [1] [nM] | IC50 (ASK1) [nM]
O=C1c2sccc2CN1c1cccc(-c2nncn2C2CC2)n1 [Compound 90, 5-(6-(4-Cyclopropyl-4H-1,2,4-triazol-3-yl)pyridin-2-yl)-4,5-dihydro-6H-thieno[2,3-c]pyrrol-6-one] | 200 to 1000 | < 200
CC(=O)c1ccccc1-c1cc2c(s1)C(=O)N(c1cccc(-c3nncn3C3CC3)n1)C2 [Compound 91, 2-(2-Acetylphenyl)-5-(6-(4-cyclopropyl-4H-1,2,4-triazol-3-yl)pyridin-2-yl)-4,5-dihydro-6H-thieno[2,3-c]pyrrol-6-one] | 200 to 1000 | 200 to 1000
O=C1c2sc(C3CCOCC3)cc2CN1c1cccc(-c2nncn2C2CC2)n1 [Compound 93, 5-(6-(4-cyclopropyl-4H-1,2,4-triazol-3-yl)pyridin-2-yl)-2-(tetrahydro-2H-pyran-4-yl)-4,5-dihydro-6H-thieno[2,3-c]pyrrol-6-one] | < 200 | 200 to 1000
O=C1c2scc(-c3ccccc3)c2CN1c1cccc(-c2nncn2C2CC2)n1 [Compound 94, 5-(6-(4-cyclopropyl-4H-1,2,4-triazol-3-yl)pyridin-2-yl)-3-phenyl-4,5-dihydro-6H-thieno[2,3-c]pyrrol-6-one] | 1000 to 10000 | 200 to 1000
O=C1c2sc3ccccc3c2CN1c1cccc(-c2nncn2C2CC2)n1 [Compound 95, 2-(6-(4-cyclopropyl-4H-1,2,4-triazol-3-yl)pyridin-2-yl)-1,2-dihydro-3H-benzo[4,5]thieno[2,3-c]pyrrol-3-one] | 1000 to 10000 | 200 to 1000
Cc1cc2c(s1)C(=O)N(c1cccc(-c3nncn3C3CC3)n1)C2 [Compound 96, 5-(6-(4-cyclopropyl-4H-1,2,4-triazol-3-yl)pyridin-2-yl)-2-methyl-4,5-dihydro-6H-thieno[2,3-c]pyrrol-6-one] | 200 to 1000 | < 200
N-(3-(5-(6-(4-Cyclopropyl-4H-1,2,4-triazol-3-yl)pyridin-2-yl)-6-oxo-5,6-dihydro-4H-thieno[2,3-c]pyrrol-2-yl)phenypacetamide [Compound 92] | < 200 | 200 to 1000

The next lines start with the values.

IC50 [1] [nM] | IC50 (ASK1) [nM] | Molecule
< 200 | 200 to 1000 | CCc1cc2c(s1)C(=O)N(c1cccc(-c3nncn3C3CC3)n1)C2 [Compound 97, 5-(6-(4-cyclopropyl-4H-1,2,4-triazol-3-yl)pyridin-2-yl)-2-ethyl-4,5-dihydro-6H-thieno[2,3-c]pyrrol-6-one]
1000 to 10000 | 1000 to 10000 | O=C1c2scc(C3CCOCC3)c2CN1c1cccc(-c2nncn2C2CC2)n1 [Compound 98, 5-(6-(4-cyclopropyl-4H-1,2,4-triazol-3-yl)pyridin-2-yl)-3-(tetrahydro-2H-pyran-4-yl)-4,5-dihydro-6H-thieno[2,3-c]pyrrol-6-one]
1000 to 10000 | 200 to 1000 | Cc1csc2c1CN(c1cccc(-c3nncn3C3CC3)n1)C2=O [Compound 99, 5-(6-(4-cyclopropyl-4H-1,2,4-triazol-3-yl)pyridin-2-yl)-3-methyl-4,5-dihydro-6H-thieno[2,3-c]pyrrol-6-one]
1000 to 10000 | 200 to 1000 | O=C1c2scc(Br)c2CN1c1cccc(-c2nncn2C2CC2)n1 [Compound 100, 3-bromo-5-(6-(4-cyclopropyl-4H-1,2,4-triazol-3-yl)pyridin-2-yl)-4,5-dihydro-6H-thieno[2,3-c]pyrrol-6-one]
1000 to 10000 | – | CC(C)CNc1csc2c1CN(c1cccc(-c3nncn3C3CC3)n1)C2=O [Compound 101, 5-(6-(4-cyclopropyl-4H-1,2,4-triazol-3-yl)pyridin-2-yl)-3-(isobutylamino)-4,5-dihydro-6H-thieno[2,3-c] pyrrol-6-one]
200 to 1000 | < 200 | COc1cc2c(s1)C(=O)N(c1cccc(-c3nncn3C3CC3)n1)C2 [Compound 102, 5-(6-(4-cyclopropyl-4H-1,2,4-triazol-3-yl)pyridin-2-yl)-2-methoxy-4,5-dihydro-6H-thieno[2,3-c]pyrrol-6-one]
< 200 | < 200 | CC(C)n1cnnc1-c1cccc(N2Cc3ccsc3C2=O)n1 [Compound 103, 5-(6-(4-isopropyl-4H-1,2,4-triazol-3-yl)pyridin-2-yl)-4,5-dihydro-6H-thieno[2,3-c]pyrrol-6-one]
200 to 1000 | 200 to 1000 | CN(C)c1cc2c(s1)C(=O)N(c1cccc(-c3nncn3C3CC3)n1)C2 [Compound 104, 5-(6-(4-cyclopropyl-4H-1,2,4-triazol-3-yl)pyridin-2-yl)-2-(dimethylamino)-4,5-dihydro-6H-thieno[2,3-c] pyrrol-6-one]
